Legend:
human 20S proteasome [1] = tested on: T1, human 20S proteasome; assay: ChT-L peptidase activity of latent h20S probed with Suc-LLVY-AMC; assay type: biochemical; settings: 10 μM bortezomib, Suc-LLVY-AMC 100 μM; activators could not overcome the inhibition
T1 construct: 20S proteasome was isolated from human erythrocytes; from tissue; host or cells: human erythrocytes
Description: (§1) The capacity of influencing the human 20S proteasome was examined using the latent enzyme isolated from human erythrocytes. Boc-LRR-AMC, Z-LLE-AMC, and Suc-LLVY-AMC fluorogenic substrates (Enzo Life Sciences Inc.) were used for assessment of the trypsin-, caspase-, and chymotrypsin-like activities, respectively. As an additional probe, we utilized a homemade FRET-type substrate DabEDS (Lys(Dabcyl)-[…]EDANS)-Gly[36]). Stock solutions of the substrates and modulators were prepared in dimethyl sulfoxide (DMSO). […] The activity assays were performed in a 96-well plate format in 50 mM Tris/HCl, pH 8.0. The CP was used at a final concentration of 0.002 mg mL^–1 (2.8 nM). The final concentrations of LLVY, LRR, and LLE substrates were 100 μM and DabEDS 15 μM. The concentration of reagents in the tests with inhibitors was as follows: 10 μM bortezomib (tebu-bio), 50 μM leupeptin (Roth), and 10 μM activators. The release of the aminomethylcoumarin (AMC) reporter group was followed by monitoring the fluorescence emission at 460 nm (λex was 380 nm). DabEDS hydrolysis was detected by measuring the emission at 493 nm, while the excitation wavelength was set at 335 nm. Fluorescence measurements were carried out using an Infinite M200 Pro plate reader (Tecan), every 2 min for up to 60 min at 37 °C. All activity assays were performed in at least three independent replicates.

human 20S proteasome [2] = tested on: T1, human 20S proteasome; assay: C-L peptidase activity of latent h20S probed with Z-LLE-AMC; assay type: biochemical; settings: 10 μM bortezomib
Description: as §1

## CC(C)C[C@H](NC(=O)[C@H](Cc1ccccc1)NC(=O)c1cnccn1)B(O)O [bortezomib]
Human 20S proteasome [1]
  inhibition of h20S ChT-L activity (in words): complete loss of proteasome activity
Human 20S proteasome [2]
  inhibition of h20S C-L activity (in words): completely blocked the activity of the ChT-L and C-L

Reference: publication PMC11851449, “Blm10-Based Compounds Add to the Knowledge of How Allosteric Modulators Influence Human 20S Proteasome” (ACS Chemical Biology, 2025)
